This is an account of results in US20080288176A1 (priority 2005, published 2008).

Data set [1] in a line: Enzymatic hydrolysis in liver microsomal preparations (LC-MS). The data set is classed as in vitro ADME. The settings on record: for Time to complete hydrolysis (cleavage of the diazeniumdiolate): liver microsomal preparations. As to the method:
The sensitivity of the prodrug 3 towards enzymatic hydrolysis was evaluated by LC-MS. Liver and intestinal microsomal preparations were used. […] However, these rates were slower than the enzymatic hydrolysis rates determined for the conversion of 1→4 and 2→5 (complete hydrolysis observed in 10 and 30 minutes respectively in liver microsomal preparations).

Data set [2] has as its system male Wistar rats. Nature of the data set: Gastric ulcer index after oral dosing. It counts as in vivo, rat. As to conditions: for Ulcer Indices, Mean: oral gavage, naproxen 250 mg/kg or molar equivalent (ROF 250 mg/kg), 6 h after dosing, mean aggregate gastric ulcer length; for Ulcerogenicity (in words): oral, 6 h. As to the method:
(§1) Table 1 is a summary of the protocol for a study which was conducted in male Wistar rats weighing 275-300 grams. The animals were allowed to acclimatize for at least five days prior to the commencement of the study. The study protocol was approved by the local animal ethics committee.
(§2) The animals were fasted overnight prior to test substance administration. The test substance was administered orally by gavage on the morning of the study day. All test animals had blood collected during the test period in both EDTA (ethylenediaminetetraacetic acid) tubes and SST (Serum Separator Tubes) at 1, 3 and 6 hours after dosing. Blood was collected into EDTA tubes only at 1 and 3 hours by tail tip amputation. Volume of blood collected was between 0.5 and 1 mL at each of these collections. The final collection was by puncture of the abdominal vena cava under isoflurane general anesthesia. Final blood collection was targeted as follows: 1st EDTA #1—1.5 mL; 2nd SST—1.5 mL; 3rd EDTA #2—as much as possible.
Each animal from all groups underwent a full necropsy under the supervision of a board certified veterinary pathologist. The stomach of each rat was cut along the greater curvature, contents removed into a polypropylene (Falcon) tube, the mucosa rinsed with saline and any obvious ulcers or erosions were measured along the longest axis. This measurement was recorded for each ulcer or erosion observed in each stomach. The falcon tubes and their contents were frozen at −80° C. and shipped to Novokin on dry ice for analysis.
The aggregate length of all gastric ulcers found in a given animal was calculated. The mean aggregate ulcer length across animals in a group was calculated. This mean value was reported as the ulcer index for that group.
The ulcer index of each modified drug was compared with the ulcer index of its associated parent drug and the controls using analysis of variance and Duncan's multiple range test for pairwise comparisons. Statistical analysis was done using SAS® (SAS Institute Inc., Cary, N.C.).

Data set [3] can be described thus: Serum nitrate concentration (NO release) after oral dosing. It counts as in vivo, rat. As to conditions: male Wistar rats, oral gavage, at 6 hours. As to the method: as §1, §2
EDTA samples were centrifuged, and the plasma portion was collected and frozen at −80° C. SST samples were incubated at 37° C. for approximately 45 minutes, centrifuged, and the serum was collected and frozen at −80° C. until analysis.

The test system of data set [4] is cardiac tissue prostacyclin (PGI2) to thromboxane A2 (TXB2) ratio. Nature of the data set: Cardiac tissue prostacyclin to thromboxane ratio. It counts as in vivo, rat. As to conditions: male Wistar rats; for PGI2/TXA2 ratio comparison (in words): cardiac tissue; for Cardiac Tissue PGI2/TXB2, Mean: oral gavage, heart removed 6 hours after dosing.
Excerpt: (§3) Myocardial infarction and ischemic events in high risk patients led one of the most popular COX-2 inhibitors to its demise (Bresalier et al., 2005). Non-selective NSAIDS may also cause similar problems due to their ability to inhibit COX-2. […] Adenosine diphosphate (ADP) generation is an indicator of myocardial infarction which has no connection with the arachidonic acid cascade (Borna et al., 2005). […] Long term NSAID use has been linked to kidney damage and hypertension (Zafirovska et al., 1993). […] This was associated with an increase in the urine the ratio of alanine-amino-peptidase (AAP) and creatinine.
as §1
All rats were euthanized by removal of the heart 6 hours after initial dosing, following final blood collections. Immediately after terminal blood collections were complete, the thorax was opened and the heart removed. The heart was cut in half longitudinally. Half of the heart was placed in formalin for histological examination. The other half was quickly rinsed in saline and then freeze-clamped (crushed between the jaws of a pair of modified tongs, cooled by liquid nitrogen). An entire kidney was freeze-clamped. The other kidney was left in situ for examination by the pathologist. Freeze-clamped tissues were wrapped in labeled aluminum foil and stored in liquid nitrogen until they could be transferred to a −80° C. freezer. Freeze-clamped tissues were shipped on dry ice to NOVOKIN for analysis.

The test system of data set [5] is male Wistar rats. Nature of the data set: Urine alanine aminopeptidase to creatinine ratio (proximal tubular kidney damage). The data set is classed as in vivo, rat. As to conditions: for AAP/Cr (urine alanine aminopeptidase to creatinine), Mean: oral gavage, urine collected for 6 hours.
Excerpt: as §3, §1
(§4) All test animals, housed in metabolic cages, had urine collected over wet ice for 6 hours after dosing. Aliquots of the urine from each animal were collected to determine creatinine concentration. The remainder of the urine was centrifuged at 1000 g for 10 minutes. The supernatant was collected and mixed with analytical grade ethylene glycol at a rate of 0.4 mL ethylene glycol per 1 mL urine supernatant. The ethylene glycol/urine mixture was stored at −80° C. until analysis.

The subject of data set [6] is male Wistar rats. The data set can be described thus: Urine N-acetylglucosaminidase to creatinine ratio (distal tubule toxicity). The data set is classed as in vivo, rat. The settings on record: oral gavage, urine collected for 6 hours. As to the method:
as §1, §4

Data set [7] can be described thus: Chemical stability (loss of diazeniumdiolate) in phosphate buffer. It counts as physicochemical. As to the method: They varied only in the nitrogen substituent of the amino acid, i.e. free amine (1), acetyl (2) and pivaloyl (3) groups. Their chemical stability was evaluated in phosphate buffer at different pH's over a 30 minute period (Table 11).

As to `COc1ccc2cc(C(C)C(=O)OCOC(=O)CCC(NC(C)=O)C(=O)OCOC(=O)C(C)c3ccc4cc(OC)ccc4c3)ccc2c1` (centres unmarked) [Compound 9], in data set [1] (liver microsomes), the “Time to complete hydrolysis (initial cleavage of both esters)” value amounted to 30 min.
`COc1ccc2cc(C(C)C(=O)OCON=[N+]([O-])N(C)C)ccc2c1` (centres unmarked) [DMA-NO-NAP, dimethylamino-diazeniumdiolate-naproxen]: in data set [2], the “Ulcer Indices, Mean” value came out at 1.695 and the “Ulcerogenicity (in words)” value is listed as “somewhat less ulcerogenic”. In data set [3], the “Serum Nitrate Concentrations, Mean” value stood at 768.000. In addition, in data set [4], the “PGI2/TXA2 ratio comparison (in words)” value is listed as “achieving statistical significance (p<0.05)” and the “Cardiac Tissue PGI2/TXB2, Mean” value amounted to 5.157. Besides, the “AAP/Cr (urine alanine aminopeptidase to creatinine), Mean” value in data set [5] was 132.412. Moreover, in data set [6], the “Urine NAG/Cr values, Mean” value stood at 20.403.
With `COc1ccc2cc(C(C)C(=O)OC3CC(C(=O)OCON=[N+]([O-])N(C)C)N(C(C)=O)C3)ccc2c1` (centres unmarked) [Compound 2], in data set [7] (30 min, pH 2.5), the “Stability (loss of diazeniumdiolate), pH 2.5” value is listed as “✓”. The “Stability (loss of diazeniumdiolate), pH 5.0” value in data set [7] (30 min, pH 5.0) is on record as “✓”. Besides, the “Chemical stability (in words)” value is on record as “stable” in data set [7] (pH 2.5-5.0, 30 minute period) and “much slower rate of decomposition” in data set [7] (pH 7.0, 30 minute period). Further, in data set [1], the “Time to complete hydrolysis (cleavage of the diazeniumdiolate)” value stood at 30 min.
As to `CS(=O)(=O)c1ccc(C2=C(c3ccccc3)C(=O)OC2)cc1` [ROF, Rofecoxib], in data set [2], the “Ulcer Indices, Mean” value was 0.000 and the “Ulcerogenicity (in words)” value is reported as “not significantly different from vehicle”. Besides, the “Serum Nitrate Concentrations, Mean” value in data set [3] is reported as 55.818. Also, in data set [4], the “PGI2/TXA2 ratio comparison (in words)” value is given as “lower ratios than vehicle” and the “Cardiac Tissue PGI2/TXB2, Mean” value amounted to 2.765. Further, in data set [5], the “Urine AAP/creatinine ratio change (in words)” value is on record as “did cause an increase” and the “AAP/Cr (urine alanine aminopeptidase to creatinine), Mean” value came to 538.367. Further, the “Urine NAG/Cr values, Mean” value in data set [6] is recorded as 24.176.
With `COc1ccc2cc(C(C)C(=O)OC3CNC(C(=O)OCON=[N+]([O-])N(C)C)C3)ccc2c1` (centres unmarked) [Compound 1], the “Chemical stability (in words)” value in data set [7] (pH range 2.5-7.0, 30 minute period) is given as “underwent rapid degradation”. For the same compound, in data set [1], the “Time to complete hydrolysis (cleavage of the diazeniumdiolate)” value stood at 10 min.
